# Assay results taken from patent US20140213557A1, “Active Compound Combinations” (Bayer CropScience AG, priority 2005, published 2014).
# Values joined by “and” are separate entries in the source; they are usually repeats but may differ in a detail not shown here. Identical values can stand only once.
# Tested on: Phakopsora pachyrhizi
# Assay: Phakopsora test (soya bean)
# Type: in vivo
# Settings: sprayed 1 day before inoculation, evaluation 11 days after inoculation
# Protocol: The suitable active compound preparations used are commercial formulations which, if required, are diluted to the desired concentration prior to application.
# Soya bean plants (cv. Miyagishirome) are cultivated in a plastic vessel having a diameter of 7.5 cm for 14 days, until they have reached the ⅔-leaf stage. The active compound preparations were, at the concentrations stated below, sprayed onto the test plants (6 ml for in each case 3 test vessels, the test solution contains 0.02% of Neoesterin as tackifier).
# 1 day after the application of the active compound preparation, the plants were sprayed with a urediniospore suspension (1×10^5 urediniospores/ml) of the rust pathogen Phakopsora pachyrhizi. The plants are then placed in a greenhouse at about 25° C. during the day and about 18° C. at night and a relative atmospheric humidity of 91.9%.
# Evaluation is carried out 11 days after the inoculation by comparison of the infected areas of untreated and treated plants. 0% means an efficacy which corresponds to that of the control, whereas an efficacy of 100% means that no infection is observed.
Structure (SMILES),Efficacy in % found (application rate 0.5 ppm),Efficacy in % found (application rate 5 ppm) [%]
"O=C(O)CNCP(=O)(O)O [(1-1) glyphosate, glyphosate]",0%,0
"CP(=O)(O)CCC(N)C(=O)O (centres unmarked) [(1-2) glufosinate, glufosinate]",0%,0
"CC(C)(C)C(O)(CCc1ccc(Cl)cc1)Cn1cncn1 (centres unmarked) [(3-17) tebuconazole, tebuconazole]",60% and 50%,
